In the NIST ThermoML archive (doi:10.1021/je050195w):
Numbers after ± are expanded uncertainties.

Details: Crystal; DTA

CC(=O)[C@@]12O[C@@H]1C[C@H]1[C@@H]3CCC4=CC(=O)CC[C@]4(C)[C@H]3CC[C@@]12C [16α,17-epoxypregn-4-ene-3,20-dione]
Normal melting temperature: 205.50 ± 1.1 °C
